Test results taken from patent US10519504B2, “Methods for treatment of oncological disorders using epimetabolic shifters, multidimensional intracellular molecules, or environmental influencers” (Berg LLC, priority 2009, dated 2019).

Assays:
Hif1 alpha = experiment: Western blot, Hif1 alpha levels; assay type: cell-based, human
Description: The Actin blots were stripped by incubating for 30 minutes with methanol, followed by two 10 minute washes with TBS-T, then 30 minutes of incubation with Stripping buffer at 50 deg C., and followed by two washes with 100 ml or more of TBS-T for 30′ each. The blots were scanned in laser scanner to check for complete stripping. The blots were activated with methanol for 5 seconds, washed with water for 5 minutes, and TBST for 15 minutes. The blots were blocked for 1 hour with 5% blocking reagent in TBS-T at room temperature and then washed 3 times with TBS-T (1X−15′; 2X5′ each) and probed with the primary antibody for Hif 1 alpha, Caspase 3 or PDHB in 5% BSA (at 1:200 by incubation overnight at 4 deg C. with gentle shaking. The primary antibody for Hif 1 alpha (Abcam ab2185; antirabbit) was at 1:500 dilution in 5% BSA. The primary antibody for Caspase 3 (Santacruz sc7272; antirabbit) was at 1:200 dilution in 5% BSA. The primary antibody for Pyruvate Dehydrogenase beta (PDHB) (Novus Biologicals H00005162-M03; antimouse) was at 1:500 dilution in 5% BSA. After incubation with primary antibodies, the membranes were washed 3 times with TBS-T (1X−15′; 2X5′ each) and probed with the secondary antibody (PDHB antimouse; Hif 1a and Caspase 3 antirabbit; 1:10,000 dilution) for 1 h at room temperature. […]

[1] = test system: MCF-7 breast cancer cells; experiment: OCR and ECAR, SeaHorse XF analyzer; assay type: cell-based
Description: (SeaHorse Biosciences Inc, North Billerica, Mass.).
In contrast, cancer cells (e.g., MCF-7, PaCa-2) are inherently primed to culture at higher levels of glucose compared to normal cells due to their glycolytic phenotype for maintenance in culture.

[2] = test system: Succinate Dehydrogenase (SDH) Subunit B; experiment: Western blot, Succinate Dehydrogenase B in mitochondrial preparations; assay type: cell-based; details: mitochondrial preparations of cancer cells
Description: The above blots were stripped by incubating for 30 minutes with methanol, followed by two 10 minute washes with TBS-T, then 30 minutes of incubation with Stripping buffer at 50 deg C., and followed by two washes with 100 ml or more of TBS-T for 30′ each. The blots were scanned in laser scanner to check for complete stripping. The blots were activated with methanol for 5 seconds, washed with water for 5 minutes, and TBST for 15 minutes. The blots were blocked for 1 hour with 5% blocking reagent in TBS-T at room temperature and then washed 3 times with TBS-T (1X−15′; 2X5′ each) and probed with the primary antibody for PKM2, SDHB or SDHC in 5% BSA in TBS-T by incubation overnight at 4 deg C. with gentle shaking. The primary antibody for SDHC (ABNOVA H00006391-M12; antimouse) was at 1:500 dilution. The primary antibody for SDHB was from Abcam ab4714-200; antimouse; at 1:1000 dilution. The primary antibody for Pyruvate Kinase M2 (PKM2) was from Novus Biologicals H00005315-D0IP; antirabbit; at 1:500 dilution. After incubation with primary antibodies, the membranes were washed 3 times with TBS-T (1X−15′; 2X5′ each) and probed with the secondary antibody (SDHB & C antimouse; and PKM2 antirabbit; 1:10,000 dilution) for 1 h on the orbital tilting shaker at room temperature. […]

HK-2 cells = experiment: Diabetes PCR array; assay type: cell-based, human; details: HK2(H) cells, 22 mM glucose; particularly 100 μM
Description: The HK-2 and HASMC cells are normally maintained in culture at 5.5 mM glucose, which is a concentration that corresponds to a range considered normal in human blood. However, in order to simulate a diabetic environment, both cell lines were subsequently maintained at 22 mM glucose, which corresponds to the range observed in human blood associated with chronic hyperglycemia. The cells were subsequently allowed to propagate over 3 passages so that the intracellular regulation processes were functionally adapted to mimic a diabetic state. The choice of cell line was based on the physiologic influence of diabetes on renal dysfunction and progression to end-stage renal disease (ESRD) in addition to the progressive pathophysiology of a compromised cardiovascular function.
The Diabetes PCR array (SABiosciences) offers a screen for 84 genes simultaneously.
A stringent analysis of the Real time PCR data of the HK-2 samples on the Diabetes Arrays (Cat #PAHS-023E, SABiosciences Frederick Md.) was made to exclude all results where gene regulation was not at least a two-fold regulation over HK-2 normal untreated cells with a p value of less than 0.05.

SCC cells = experiment: Real-time PCR Diabetes Array; assay type: cell-based
Description: The control cells were untreated cells.

[3] = test system: Pancreatic Cancer Cells (PaCa2); experiment: Real-time PCR Angiogenesis Array; assay type: cell-based
Description: Experiments were carried out essentially as described above.

COC1=C(OC)C(=O)C(C/C=C(\C)CC/C=C(\C)CC/C=C(\C)CC/C=C(\C)CC/C=C(\C)CC/C=C(\C)CC/C=C(\C)CC/C=C(\C)CC/C=C(\C)CCC=C(C)C)=C(C)C1=O [Q10, Coenzyme Q10]
Hif1 alpha protein levels (Hif1 alpha; mitochondrial preparations of cancer cells): decreased Hif1 alpha protein levels
Hif1a lower band (Hif1 alpha; whole cell lysates of normal cells): showed a decrease as well
OCR values [1]: consistent reduction in OCR values
SDH protein levels [2]: increase SDH protein levels
CEACAM1 RNA transcript (HK-2 cells): highly upregulated
TNFRSF1A Regulation (SCC cells; 100 μM Q10, at 6 and 24 hours): Down regulated at 6
G6PD Regulation (SCC cells; 100 μM Q10, at 6 hours): Down regulated at 6
ICAM1 Regulation (SCC cells; 100 μM Q10, at 6 hours): Down regulated at 6
INPPL1 Regulation (SCC cells; 100 μM Q10, at 6 hours): Down regulated at 6
NOS3 Regulation (SCC cells; 100 μM Q10, at 6 hours): Down regulated at 6
PIK3CD Regulation (SCC cells; 100 μM Q10, at 6 hours): Down regulated at 6
PPARA Regulation (SCC cells; 100 μM Q10, at 6 hours): Down regulated at 6
PYGL Regulation (SCC cells; 100 μM Q10, at 6 hours): Down regulated at 6
SREBF1 Regulation (SCC cells; 100 μM Q10, at 6 hours): Down regulated at 6
STXBP2 Regulation (SCC cells; 100 μM Q10, at 6 hours): Down regulated at 6
TNF Regulation (SCC cells; 100 μM Q10, at 6 hours): Down regulated at 6
VEGFA Regulation (SCC cells; 100 μM Q10, at 6 hours): Down regulated at 6
angiogenesis array genes (AKT1, ANGPTL4 ... VEGFA, VEGFB as listed) ([3]; 100 uM Q10): modulated by Q10 treatment
genes from the angiogenesis array whose expression is regulated ([3]; 100 μM Q10, genes: ANGPTL4, CDH5, FGF1, AKT1, ANPEP, CCL2, CXCL1, EDG1, EFNB2, EGF, ILIB, IL8, KDR, NRP1, PECAM1, PROK2, SPHK1, STAB1, VEGFA): A list of genes from the angiogenesis array whose expression is regulated
